This experiment deals with MNK2a (Homo sapiens (Human), UniProt Q9HBH9). Put plainly: MNK2a in vitro kinase assay (Assay 2), ADP-Glo. It counts as biochemical. The conditions noted are these: read-out: MNK2 IC50. Here is the method:
B. MNK2a In vitro Kinase Assay (Assay 2)
ASSAY SETUP: The inhibition of kinase activity of MNK2a was assessed using pre-activated GST-MNK2a. The white, 384-well OptiPlate F plates were purchased from PerkinElmer. The ADP-Glo Kinase Assay (including ultra pure ATP) was purchased from Promega (V9103). Activated MNK2a was obtained as described in WO2011/104340. […] ID No. 5 of WO 2011/104340 by the C-terminal —CONH2 group, was purchased from Thermo Fisher Scientific. All other materials were of highest grade commercially available. Compounds are tested in either serial dilutions or single dose concentrations. The compound stock solutions are 10 mM in 100% DMSO The serial compound dilutions are prepared in 100% DMSO followed by 1:27.3 intermediate dilution in assay buffer. The final DMSO concentration in assay will be <3%. In the 384-well plates 3 μl of test compound from the intermediate dilution is mixed with 4 μl of the activated MNK2 enzyme (final concentration of 10 nM) and 4 μl of the peptide (final concentration of 25 μM)/ultra pure ATP (final concentration of 20 μM), all dissolved in assay buffer. This step is followed by an incubation time of 90 min, then 10 μl of ADP Glo reagent are added, followed by 40 min of incubation. Then 20 μl of kinase detection reagent are admixed. The plates are sealed and after an incubation period of 30 min, the luminescence signal is measured in an Envision reader to determine the amount of produced ADP. All incubation steps are performed at room temperature. The assay buffer consists of 20 mM HEPES, 2 mM DTT, 0.01% BSA, 20 mM MgCl2 and 0.1% Pluronic F-127.
The luminescent signal generated is proportional to the ADP concentration produced and is correlated with activated MNK2 activity. The analysis of the data is performed by the calculation of the percentage of ATP consumption of activated MNK2 in the presence of the test compound compared to the consumption of ATP in the presence of activated MNK2 without compound. (RLU(sample)−RLU(low control))*100/(RLU(high value)−RLU(low control)) [RLU=relative luminescence units]
[…] values based on dose response curves are calculated with the AssayExplorer software.
MNK2a, sequence (Q9HBH9 whole entry): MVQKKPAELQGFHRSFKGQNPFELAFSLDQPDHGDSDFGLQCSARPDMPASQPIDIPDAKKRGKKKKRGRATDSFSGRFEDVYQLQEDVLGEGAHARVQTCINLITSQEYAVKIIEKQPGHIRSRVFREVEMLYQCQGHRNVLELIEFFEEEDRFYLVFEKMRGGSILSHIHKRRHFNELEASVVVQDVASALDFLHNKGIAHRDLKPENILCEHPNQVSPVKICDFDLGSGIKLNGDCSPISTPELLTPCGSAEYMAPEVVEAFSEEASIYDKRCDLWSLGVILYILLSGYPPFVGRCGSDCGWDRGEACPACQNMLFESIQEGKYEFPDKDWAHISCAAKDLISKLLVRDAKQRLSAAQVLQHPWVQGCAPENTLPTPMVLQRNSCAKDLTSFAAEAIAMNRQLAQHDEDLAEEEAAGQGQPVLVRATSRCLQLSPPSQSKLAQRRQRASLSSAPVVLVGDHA
Consider `Cc1cc(N=S(C)(C)=O)cc2ncnc(Nc3ccc(F)cc3OC(C)C(F)(F)F)c12` (racemic) [Example 1.013], for which the IC50 came out at 2 nM.
For `Cc1cc(N=S(C)(C)=O)cc2ncnc(Nc3ccc(C#N)cc3OC(C)C(F)(F)F)c12` (stereo not drawn) [Example 1.001], the IC50 stood at 17 nM.
On to `CC(Oc1ncccc1Nc1ncnc2cc(N=S(C)(C)=O)cc(F)c12)C(F)(F)F` (stereo not drawn) [Example 1.007], for which the IC50 turned out to be 8 nM.
On to `Cc1cc(C(Oc2cc(F)ccc2Nc2ncnc3cc(N=S(C)(C)=O)cc(C)c23)C(F)(F)F)on1` (stereo not drawn) [Example 1.010], for which the IC50 worked out at 17 nM.
Then `Cc1cc(N=S(C)(C)=O)cc2ncnc(Nc3cccnc3OC(C)C(F)(F)F)c12` (stereo not drawn) [Example 1.017], with 12 nM.
Then `Cc1cc(N=S2(=O)CCCC2)cc2ncnc(Nc3ccc(F)cc3OC(C)C(C)(C)C#N)c12` (stereo not drawn) [Example 2.007], with 3 nM.
The result for `Cc1cc(N=S(C)(C)=O)cc2ncnc(Nc3cccnc3O[C@H](C)C(=O)NCC(F)(F)F)c12` [Example 2.013] reads 2 nM.
Regarding `CC(C)Oc1ncccc1Nc1ncnc2cc(N=S(C)(C)=O)cc(F)c12` [Example 2.015], the IC50 worked out at 190 nM.
The result for `Cc1cc([C@@H](C)Oc2cc(F)ccc2Nc2ncnc3cc(N=S4(=O)CCNCC4)cc(C)c23)on1` [Example 2.016] reads 1 nM.
Then `Cc1cc(N=S2(=O)CC[C@H](N)C2)cc2ncnc(Nc3ccc(F)cc3O[C@H](C)C(=O)NCC(F)(F)F)c12` (stereo partly drawn) [Example 2.019], with 1 nM; and `Cc1cc(N=S2(=O)CC[C@@H](N)C2)cc2ncnc(Nc3ccc(F)cc3O[C@H](C)C(=O)NCC(F)(F)F)c12` (stereo partly drawn) [Example 2.020], with 3 nM.
Then `Cc1cc(N=S2(=O)CCC2)cc2ncnc(Nc3cccnc3O[C@H](C)C(=O)NCC(F)F)c12` [Example 2.021], with 2 nM; and `Cc1cc(N=S2(=O)CCCC2)cc2ncnc(Nc3cccnc3O[C@H](C)C(=O)NCC(F)(F)F)c12` [Example 2.022], with 2 nM; and `Cc1cc(N=S2(=O)CCC(O)C2)cc2ncnc(Nc3ccc(F)cc3O[C@H](C)C(=O)NCC(F)(F)F)c12` (stereo partly drawn) [Example 2.023], with 2 nM.
Consider `C[C@@H](Oc1cc(F)ccc1Nc1ncnc2cc(N=S3(=O)CC4(COC4)C3)cc(Cl)c12)C(=O)NCC(F)(F)F` [Example 2.024], for which the IC50 is 3 nM.
In the case of `C[C@@H](Oc1cc(F)ccc1Nc1ncnc2cc(N=S(C)(=O)C3CCOCC3)cc(F)c12)C(=O)NCC(F)(F)F` (stereo partly drawn) [Example 2.025], the IC50 worked out at 7 nM.
On to `C[C@@H](Oc1cc(F)ccc1Nc1ncnc2cc(N=S3(=O)CC(C)(C)C3)cc(F)c12)C(=O)NCC#N` [Example 2.026], for which the IC50 came to 1 nM.
As to `Cc1cc(N=S(C)(=O)C2CCNC2)cc2ncnc(Nc3ccc(F)cc3O[C@H](C)C(=O)NCC(F)(F)F)c12` (stereo partly drawn) [Example 2.028], the IC50 was 3 nM.
Then `Cc1cc(N=S(C)(=O)C2CCOCC2)cc2ncnc(Nc3ccc(F)cc3O[C@H](C)C(=O)NCC(F)(F)F)c12` (stereo partly drawn) [Example 2.029], with 4 nM; and `COc1cc(N=S(C)(=O)C2CC2)cc2ncnc(Nc3ccc(F)cc3O[C@H](C)C(=O)NCC(F)(F)F)c12` (stereo partly drawn) [Example 2.030], with 4 nM.
For the compound `C[C@@H](Oc1ncccc1Nc1ncnc2cc(N=S(C)(C)=O)cc(F)c12)C(=O)NCC(F)(F)F` [Example 2.031], the IC50 was determined as 10 nM.
For `COC(=O)N1CC2(C1)CS(=O)(=Nc1cc(C)c3c(Nc4ccc(F)cc4O[C@H](C)C(=O)NCC(F)(F)F)ncnc3c1)C2` [Example 2.032], the IC50 worked out at 1 nM.
As for `C[C@@H](Oc1cc(F)ccc1Nc1ncnc2cc(N=S3(=O)CCCC3)cc(F)c12)C(=O)NCC#N` [Example 2.033], the IC50 came to 4 nM.
Then `Cc1cc(N=S2(=O)CC(C)(C)C2)cc2ncnc(Nc3ccc(Cl)cc3O[C@H](C)C(=O)N[C@@H](C)C(F)(F)F)c12` [Example 2.034], with 1 nM; and `Cc1cc(N=S2(=O)CCC(C)C2)cc2ncnc(Nc3ccc(F)cc3O[C@H](C)C(=O)NCC(F)(F)F)c12` (stereo partly drawn) [Example 2.035], with 2 nM.
Then `Cc1cc(N=S2(=O)CCC2)cc2ncnc(Nc3ccc(F)cc3O[C@H](CO)CF)c12` [Example 2.036], with 4 nM.
As to `C[C@@H](Oc1cc(F)ccc1Nc1ncnc2cc(N=S3(=O)CC(C)(C)C3)cc(Cl)c12)C(=O)NCC(F)(F)F` [Example 2.037], the IC50 is 2 nM.
In the case of `Cc1cc(N=S2(=O)CC3(COC3)C2)cc2ncnc(Nc3ccc(F)cc3O[C@H](C)C(=O)NCC(F)(F)F)c12` [Example 2.038], the IC50 came out at 3 nM.
For `Cc1cc(N=S2(=O)CCC2)cc2ncnc(Nc3cccnc3O[C@H](C)C(=O)NCC(F)(F)F)c12` [Example 2.039], the IC50 worked out at 3 nM.
Then `C[C@@H](Oc1cc(F)ccc1Nc1ncnc2cc(N=S(C)(=O)C(C)(C)C)cc(F)c12)C(=O)NCC(F)(F)F` (stereo partly drawn) [Example 2.040], with 18 nM; and `Cc1cc(N=S2(=O)CCC2)cc2ncnc(Nc3ccc(F)cc3O[C@H](C)C(=O)NC(C(F)(F)F)C(F)(F)F)c12` [Example 2.041], with 1 nM.
Then `Cc1cc(N=S(C)(=O)C2CC2)cc2ncnc(Nc3ccc(F)cc3O[C@H](C)C(=O)NCC(F)(F)F)c12` (stereo partly drawn) [Example 2.042], with 5 nM; and `Cc1cc(N=S2(=O)CCC2)cc2ncnc(Nc3ccc(F)cc3O[C@H](CO)C(F)(F)F)c12` [Example 2.043], with 2 nM.
Then `Cc1cc(N=S2(=O)CC(C)(C)C2)cc2ncnc(Nc3ccc(F)cc3O[C@H](C)C(=O)NCC(F)(F)F)c12` [Example 2.044], with 1 nM; and `Cc1cc(N=S2(=O)CC3(COC3)C2)cc2ncnc(Nc3ccc(Cl)cc3O[C@H](C)C(=O)N[C@@H](C)C(F)(F)F)c12` [Example 2.045], with 1 nM.
As for `Cc1cc(N=S(C)(=O)C(C)C)cc2ncnc(Nc3ccc(F)cc3O[C@H](C)C(=O)NCC(F)(F)F)c12` (stereo partly drawn) [Example 2.046], the IC50 is 3 nM.
Then `COc1cc(N=S2(=O)CCC2)cc2ncnc(Nc3ccc(F)cc3O[C@H](C)C(=O)NCC(F)(F)F)c12` [Example 2.047], with 3 nM.
Then `Cc1cc(N=S(C)(C)=O)cc2ncnc(Nc3ccc(F)cc3OC(C)Cn3ccnc3)c12` (stereo not drawn) [Example 3.004], with 17 nM; and `Cc1cc(N=S(C)(C)=O)cc2ncnc(Nc3ccc(F)cc3OCC#N)c12` [Example 3.005], with 1 nM; and `Cc1cc(N=S(C)(C)=O)cc2ncnc(Nc3ccc(F)cc3OC(C)C3CCCO3)c12` (stereo not drawn) [Example 3.010], with 23 nM.
The result for `COc1cc(N=S2(=O)CCCC2)cc2ncnc(Nc3ccc(F)cc3O[C@H](C)C(=O)NCC(F)(F)F)c12` [Example 3.011] reads 2 nM; that for `CCC(Oc1cc(F)ccc1Nc1ncnc2cc(N=S(C)(C)=O)cc(C)c12)C(=O)OC` (stereo not drawn) [Example 3.017], 138 nM.
Consider `Cc1cc(N=S(C)(C)=O)cc2ncnc(Nc3ccc(F)cc3OC(C)c3ccnn3C)c12` (stereo not drawn) [Example 3.023], for which the IC50 came to 42 nM.
The result for `Cc1cc(N=S(C)(C)=O)cc2ncnc(Nc3ccc(F)cc3O[C@@H](C)CN)c12` [Example 3.024] reads 16 nM; that for `Cc1cc(N=S(C)(C)=O)cc2ncnc(Nc3ccc(F)cc3OC(C)Cn3cccn3)c12` (stereo not drawn) [Example 3.034], 58 nM.
In the case of `Cc1noc(C(C)Oc2cc(F)ccc2Nc2ncnc3cc(N=S(C)(C)=O)cc(C)c23)n1` (stereo not drawn) [Example 3.036], the 50% inhibitory concentration (IC50) worked out at 9 nM.
The result for `Cc1cc(N=S(C)(C)=O)cc2ncnc(Nc3ccc(F)cc3OCC3CNC(=O)C3)c12` (stereo not drawn) [Example 3.037] reads 3 nM.
The result for `COc1cc(N=S(C)(C)=O)cc2ncnc(Nc3ccc(F)cc3O[C@H](C)C(=O)NCC(F)(F)F)c12` [Example 3.040] reads 6 nM.
Then `Cc1nnc(C(C)Oc2cc(F)ccc2Nc2ncnc3cc(N=S(C)(C)=O)cc(C)c23)o1` (stereo not drawn) [Example 3.041], with 33 nM; and `Cc1cc(N=S(C)(C)=O)cc2ncnc(Nc3ccc(F)cc3O[C@H](C)C(=O)N[C@H](C)C(F)(F)F)c12` [Example 3.051], with 3 nM.
Regarding `Cc1cc(N=S2(=O)CCC2)cc2ncnc(Nc3ccc(F)cc3O[C@H](C)C(=O)N(CC(F)(F)F)CC(F)(F)F)c12` [Example 3.052], the IC50 turned out to be 3 nM.
Turning to `Cc1cc(N=S(C)(C)=O)cc2ncnc(Nc3ccc(F)cc3O[C@H](C)C(=O)N(CC(F)F)CC(F)F)c12` [Example 3.053], the IC50 was 2 nM.
Then `Cc1cc(N=S(C)(C)=O)cc2ncnc(Nc3ccc(F)cc3O[C@H](C)C(=O)N(CC(F)(F)F)CC(F)(F)F)c12` [Example 3.055], with 3 nM; and `Cc1cc(N=S2(=O)CCCC2)cc2ncnc(Nc3ccc(F)cc3O[C@H](C)C(=O)N3CC[S+]([O-])CC3)c12` [Example 4.004], with 6 nM.

Values taken from patent US9139577B2, “Sulfoximine substituted quinazolines for pharmaceutical compositions” (Boehringer Ingelheim International GmbH, priority 2013, dated 2015).
